Results from patent publication US6585961B1, “Antimicrobial compositions” (priority 2001, dated 2003).

Assays:
[1] = Appearance and particle size of essential oil emulsion with surfactant; assay type: physicochemical; conditions: Table I; for Appearance: emulsion of essential oils with surfactant; for Estimated Particle Size: micelle of essential oils with surfactant
Description: Since there are literally thousands of surfactants, many of which fulfill these criteria, it would be a very difficult task to examine every one of them on an individual basis. […]

[2] = Hydrophile-lipophile balance (HLB) of surfactant; assay type: physicochemical; conditions: for HLB Value: surfactants (2 wt. %) found to give the desired results; for HLB: Table I
Description: An old and well-accepted method to determine functionality of surfactants is known as the hydrophile -lipophile balance (HLB). The HLB is an expression of the relative simultaneous attraction of a surfactant for water and for oil. The HLB of a surfactant determines the type of an emulsion that tends to be formed. It is an indicative of the behavior characteristics and not an indication of surfactant efficiency.
When two or more surfactants are to be blended the HLB of the combinations is easily calculated. If x is the proportion of one surfactant having an HLB of A, and the other surfactant has an HLB of B, the HLB of the combination can be expressed for all practical purposes as xA+(1−x)B. This is a straight-line relationship. If the value of this 16 or greater, then most likely the combination will be workable.

Compound	Appearance [1]	Estimated Particle Size [1]	HLB Value [2]	HLB [2]
Cocamidopropyl betaine [Tego Betaine ZF]	transparent	≧0.05u	–	–
DL-2-pyrrolidone-5-carboxylic acid salt of ethyl N-cocoyl-L-arginate	–	–	>20	–
CCCCCCCCCCCCOS(=O)(=O)[O-].[Na+] [Dodecyl sulfate, sodium salt]	–	–	˜40	–
CCCCCCCCCCCCCCCCCC(=O)OCCO [Glycol stearate LIPO EGDS, Glycol stearate]	2 phase	very large^1	–	2.0
Glyceryl dilaurate [Glyceryl dilaurate Lexemul GDL]	not dispersible	very large^1	–	2.4
